Key:
[1] = target: T1, Cytochrome P450 11B2, mitochondrial (Homo sapiens, UniProt P19099); assay: In vitro inhibition of human cytochrome P450 11B2 expressed in Schizosaccharomyces pombe with 500 nM deoxy-corticosterone
T1 sequence (P19099 whole entry): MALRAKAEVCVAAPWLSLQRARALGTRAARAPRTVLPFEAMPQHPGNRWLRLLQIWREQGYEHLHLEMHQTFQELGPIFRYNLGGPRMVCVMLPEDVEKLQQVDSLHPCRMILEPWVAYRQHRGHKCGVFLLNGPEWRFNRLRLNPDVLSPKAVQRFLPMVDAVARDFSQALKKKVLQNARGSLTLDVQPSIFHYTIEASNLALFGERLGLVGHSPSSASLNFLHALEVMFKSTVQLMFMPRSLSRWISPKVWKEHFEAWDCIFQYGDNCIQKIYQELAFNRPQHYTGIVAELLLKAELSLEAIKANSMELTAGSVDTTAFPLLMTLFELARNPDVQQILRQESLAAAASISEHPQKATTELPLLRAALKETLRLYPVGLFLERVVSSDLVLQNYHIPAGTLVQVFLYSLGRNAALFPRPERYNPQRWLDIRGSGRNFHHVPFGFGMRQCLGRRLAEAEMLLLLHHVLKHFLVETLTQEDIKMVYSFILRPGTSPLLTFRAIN

Aromatase = target: T2, Aromatase (Homo sapiens, UniProt P11511)
T2 sequence (P11511 whole entry): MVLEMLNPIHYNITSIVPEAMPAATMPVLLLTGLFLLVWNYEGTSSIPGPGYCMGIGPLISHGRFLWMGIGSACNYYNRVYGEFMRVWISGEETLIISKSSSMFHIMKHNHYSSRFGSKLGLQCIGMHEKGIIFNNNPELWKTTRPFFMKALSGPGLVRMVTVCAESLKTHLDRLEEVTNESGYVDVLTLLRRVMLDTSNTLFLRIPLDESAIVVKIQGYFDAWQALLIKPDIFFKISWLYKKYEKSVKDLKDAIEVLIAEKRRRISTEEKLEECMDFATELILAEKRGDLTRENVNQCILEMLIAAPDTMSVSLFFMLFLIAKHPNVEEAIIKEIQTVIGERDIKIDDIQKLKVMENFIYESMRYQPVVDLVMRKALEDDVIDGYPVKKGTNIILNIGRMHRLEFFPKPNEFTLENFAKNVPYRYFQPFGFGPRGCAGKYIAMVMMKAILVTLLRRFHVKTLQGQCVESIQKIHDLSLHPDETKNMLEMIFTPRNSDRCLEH
Description: In vitro inhibitory concentration against human placental cytochrome P450 19 with 2.5 uM testosterone

[2] = target: T3, Steroid 17-alpha-hydroxylase/17,20 lyase (Homo sapiens, UniProt P05093); assay: In vitro inhibition against human […] cytochrome P450 17 expressed in Escherichia coli with 2.5 uM progesterone
T3 sequence (P05093 whole entry): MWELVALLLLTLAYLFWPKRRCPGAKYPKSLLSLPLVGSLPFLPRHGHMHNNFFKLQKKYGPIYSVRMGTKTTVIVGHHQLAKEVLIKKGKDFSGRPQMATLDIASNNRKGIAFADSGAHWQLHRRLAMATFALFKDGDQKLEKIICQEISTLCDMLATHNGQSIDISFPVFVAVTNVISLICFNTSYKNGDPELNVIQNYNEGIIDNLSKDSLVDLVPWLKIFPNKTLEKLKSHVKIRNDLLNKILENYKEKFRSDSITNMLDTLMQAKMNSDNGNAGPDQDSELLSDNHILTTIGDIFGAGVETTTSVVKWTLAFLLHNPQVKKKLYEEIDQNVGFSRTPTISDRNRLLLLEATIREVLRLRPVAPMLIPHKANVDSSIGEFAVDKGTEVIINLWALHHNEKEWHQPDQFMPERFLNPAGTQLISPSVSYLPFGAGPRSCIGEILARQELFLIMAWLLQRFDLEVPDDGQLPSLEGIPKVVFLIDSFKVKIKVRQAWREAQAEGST

[3] = target: T4, Cytochrome P450 11B1, mitochondrial (Bos taurus, UniProt P15150); assay: In vitro inhibition against bovine cytochrome P450 11B with 200 uM corticosterone; settings: cyp11b
T4 sequence (P15150 whole entry): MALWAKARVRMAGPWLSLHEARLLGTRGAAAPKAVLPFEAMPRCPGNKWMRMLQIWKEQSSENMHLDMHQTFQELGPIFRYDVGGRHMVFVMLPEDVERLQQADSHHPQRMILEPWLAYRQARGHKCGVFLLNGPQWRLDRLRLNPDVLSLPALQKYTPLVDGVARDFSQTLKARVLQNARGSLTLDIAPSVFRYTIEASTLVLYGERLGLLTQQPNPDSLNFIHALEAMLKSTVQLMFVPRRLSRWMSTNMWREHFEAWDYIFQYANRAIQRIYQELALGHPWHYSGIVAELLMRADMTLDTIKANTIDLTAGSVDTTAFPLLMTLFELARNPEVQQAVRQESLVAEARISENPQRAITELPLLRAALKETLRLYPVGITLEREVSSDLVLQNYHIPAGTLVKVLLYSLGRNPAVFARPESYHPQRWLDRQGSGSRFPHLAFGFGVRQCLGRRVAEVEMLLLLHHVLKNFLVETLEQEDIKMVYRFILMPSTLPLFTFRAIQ

[4] = target: T5, Cytochrome P450 11B1, mitochondrial (Homo sapiens, UniProt P15538); assay: In vitro inhibition of [14C]deoxycorticosterone binding to human cytochrome P450 11B1 expressed in hamster V79 MZh cells; assay type: cell-based
T5 sequence (P15538 whole entry): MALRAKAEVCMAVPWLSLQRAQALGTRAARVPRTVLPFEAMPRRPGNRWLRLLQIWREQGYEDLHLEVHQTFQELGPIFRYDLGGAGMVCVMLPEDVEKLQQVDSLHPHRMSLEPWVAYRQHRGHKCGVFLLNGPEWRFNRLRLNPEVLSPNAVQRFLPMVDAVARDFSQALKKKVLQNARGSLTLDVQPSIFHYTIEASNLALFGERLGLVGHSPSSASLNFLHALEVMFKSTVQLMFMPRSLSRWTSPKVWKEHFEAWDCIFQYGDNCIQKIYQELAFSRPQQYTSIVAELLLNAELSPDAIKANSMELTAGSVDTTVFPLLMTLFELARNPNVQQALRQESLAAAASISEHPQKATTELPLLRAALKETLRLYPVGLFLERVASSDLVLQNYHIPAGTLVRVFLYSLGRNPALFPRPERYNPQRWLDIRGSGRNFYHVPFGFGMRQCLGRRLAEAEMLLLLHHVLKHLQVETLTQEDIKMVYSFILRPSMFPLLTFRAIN

[5] = target: T1, Cytochrome P450 11B2, mitochondrial; assay: In vitro inhibition of [14C]deoxycorticosterone binding to human cytochrome P450 11B2 expressed in hamster V79 MZh cells; assay type: cell-based

Compound	Inhibition [1] [%]	IC50 (Aromatase) [µM]	Inhibition [2] [%]	Inhibition [3] [%]	IC50 [4] [µM]	IC50 [5] [µM]
Clc1ccc2c(c1)CC/C2=C/c1c[nH]cn1	80	0.039	26	87	–	–
N#Cc1ccc2c(c1)/C(=C\c1c[nH]cn1)CCC2	23	0.81	3	97	–	–
C(=C1\CCCc2ccccc21)/c1c[nH]cn1	82	0.19	13	95	–	–
N#Cc1ccc2c(c1)CC/C2=C/c1ncc[nH]1	65	0.015	4	100	0.0123	0.0357
Brc1ccc2c(c1)CC/C2=C/c1c[nH]cn1	76	–	15	88	–	0.0103
Clc1ccc2c(c1)/C(=C/c1c[nH]cn1)CCC2	48	0.12	24	66	–	0.0473
Fc1ccc2c(c1)CC/C2=C/c1c[nH]cn1	58	–	11	64	–	–
N#Cc1ccc2c(c1)/C(=C/c1cnc[nH]1)CCC2	8	0.97	2	62	–	–
